ChEMBL document CHEMBL1147477, “(4-Carboxamido)phenylalanine is a surrogate for tyrosine in opioid receptor peptide ligands” (Bioorg Med Chem Lett, 2004)

What was measured:
Format in all cases: toxicity, cell-based
[1] = Lethal dose against NUGC-3 human stomach cancer cell line; conditions: NUGC-3 cells, read-out: LD50 (the source's name)
[2] = Lethal dose against HeLa human cervix cancer cell line; conditions: HeLa cells, read-out: LD50 (the source's name)
[3] = Lethal dose against HL-60 human peripheral blood cancer cell line; conditions: HL-60 cells, read-out: LD50 (the source's name)
[4] = Lethal dose against human […] HL- 60 cell line; conditions: HL-60 cells, read-out: LD50 (the source's name)

Row | Compound | CC50 [1] [µM] | CC50 [2] [µM] | CC50 [3] [µM] | CC50 [4] [µM]
1 | CC(C)=C1Oc2c(ccc3c2C(O)OC(C)C3)C1=O (centres undefined) | 49 | 47 | 39 | 
2 | CC(C)=C1Oc2c(ccc3cc(C)ncc23)C1=O |  |  |  | 39
